Earlier results in patent US20130029422A1, “Composite Substrate for 3D Cell Culture” (priority 2011, published 2013).

Details: during culture of breast cancer cells

For estrogen, the “extraction from cell culture medium by PDMS-based cell culture articles” value is listed as “extract estrogen from cell culture medium”.
